Measured values: patent US10471043B2, “Compounds and methods of treating bacterial infections” (ULTUPHARMA AB, priority 2015, dated 2019)
Like-named read-outs stand apart in the source and are kept apart here.

What was measured:
[1] = system: Staphylococcus aureus strain LMG15975; test: MIC by broth micro-dilution, AM3/PBS 1:1; type: cell-based
Method: (§1) At first (Table 1), MIC is determined by broth micro-dilution method. The test medium is Antibiotic Medium 3 (AM3; Difco Ltd) mixed with Phosphate Buffered Saline (PBS) in proportions 1:1. Selected MIC values are verified using cation-adjusted Mueller Hinton Broth (MHB; BD). Cell concentration of tested pathogen is adjusted to between 3 and 5×10^5 cells per ml. To verify cell concentration of tested pathogen, viable cell counts are performed directly after each MIC-test by dilution method with PBS as a dilution solvent. Cells are counted on the agar plates with 50% strength Vegetable Peptone Broth (50% VPB; Oxoid Ltd) after 16 to 20 h of incubation at 37° C.
(§2) Cells of pathogen suspended in test medium are distributed to the wells and the plates are incubated for 16 to 20 h at 37° C. Negative controls are wells with the test medium only and positive controls are wells with the pathogen in test medium. The MIC is defined as the lowest concentration of each compound with no visible growth of pathogen.
Example compounds of formula I were examined for antibacterial activity against the Gram-positive bacterium Staphylococcus aureus strain LMG15975 using the above described method (Table 1).

[2] = system: mupirocin-resistant strains of Staphylococcus aureus; test: MIC against mupirocin-resistant strains; type: cell-based; details: Staphylococcus aureus; S. aureus V55, mupirocin-resistant; read-out: MIC
Method: as §1, §2

CCCCCCCCCC1CC(O)=C(C(=O)CCC)C(=O)O1 (stereo not drawn) [Ex. 1, 3-Butyryl-6-nonyl-4-hydroxy-5,6-dihydro-2H-pyran-2-one]
MIC ([1]; LMG15975, S. aureus (G+), Table 2, read-out: MIC (μg/ml) S. aureus): 0.8 µg/mL
MIC ([1]; LMG15975, S. aureus LMG 15975 (SLU), Methicillin-resistant, Table 5, read-out: MIC (μg/mL)): 0.8 µg/mL
MIC ([1]; LMG15975, S. aureus LMG15975, Table 1, read-out: MIC): 2.5 µM
MIC ([1]; LMG15975, S. aureus LMG15975, Table 1, read-out: MIC (μg/ml)): 0.8 µg/mL
MIC ([1]; LMG15975, Table 4, read-out: MIC (μg/ml) S. aureus): 0.8 µg/mL
MIC [2]: ≤ 0.1 µg/mL
